# Test results as given in US20260021122A1, “CANNABINOIDS AND USES THEREOF IN TREATMENT OF A DISEASE” (TECHNION RESEARCH & DEVELOPMENT FOUNDATION LIMITED, priority 2022, published 2026).
# What was measured:
# B16F10 tumors [1] = test: Mouse tumor model: B16F10 cells transplanted subcutaneously, tumor volume and weight; format: in vivo, mice; details: CBG 2.5 mg/kg or 3704 3.75 mg/kg intraperitoneally
# Protocol: (§1) All procedures involving animals were conducted in accordance with the standards approved by the Technion Animal Care and Use Ethics Committee and the studies adhered to the Technion Code for Experimentation on Animals. To induce tumors, B16F10 cells grown to a confluency of ˜75% were resuspended to a concentration of 1×10^6 cells in 200 ul sterile PBS and transplanted subcutaneously into the right flank of 8-10-week-old female WT C57B6/L mice (Envigo, 16.8±0.78 g). After either 24 hours or 3 days, mice were randomly divided into groups and treated as indicated with either a vehicle of Cannabis extract solvent (18:1:1 ratio of DDW+0.9% NaCl, Sigma, Cat #S7653; Cremophor® EL, Cat #238470; Ethanol, Sigma, #Cat 111727), CAN (100 mg/kg), synthetic CBG (2.5 mg/kg) or 3704 (3.75 mg/kg) for 5 days, then 2 days off and again for 4 days. Tumor volume was measured from day 10 to 14 (endpoint) using a vernier caliper and calculated according to the formula […] and all tumors were weighed at the endpoint of the experiments with an analytical scale.
# BM-MDSCs = test: iNOS and Arg-1 expression by BM-MDSC subpopulations (flow cytometry, western blot); format: cell-based, mice
# Protocol: Bone-marrow-derived cells (BMDCs) were isolated from the fibula and tibia bones of healthy female WT C57BL/6 mice (8-12-week-old). Red blood cells were removed by using red blood lysis buffer (Biological industries, Cat #01-888-1B). Remaining cells were counted and 1×10^6 cells were seeded in complete RPMI (Sigma, Cat #R8758) containing 10% FBS (Sigma, Cat #F7524), 1% L-Glutamine (Sartorius, Cat #03-020-1B), 1% Penicillin/[…] (Sartorius, Cat #03-031-1B), 1% MEM-Eagle (Sartorius, Cat #01-340-1B), 2.5% HEPES (Sartorius, Cat #03-025-1B) and 1% sodium pyruvate (Sartorius, Cat #03-042-1B) and supplemented with 20 ng/ml of GM-CSF and IL-6 (R&D systems, 415-ML and 406-ML). Cells were incubated at 37° C. and 5% CO2 for 4 days and then treated with conditioned media, which was the media collected from B16F10 cells treated with either DMSO, CBG, or the high-CBG extract 3704 as indicated.
# To differentiate the subpopulation of myeloid cells, BMDCs and myeloid cells from tumors were stained for the extracellular makers Ly6C-BV421 (BioLegend, Clone HK1.4; Cat #128032) or Ly6C-FITC (BioLegend, Cat #128096, Clone HK1.4), Ly6G-APC (BioLegend, Clone 1A8; Cat #127614), Ly6G-BV421 (BioLegend, Cat #127627, clone 1A8), PECy7-F4/80 (BioLegend, Clone BM8 Cat #123113), BV605-CD86 (BioLegend, Clone GL-1, Cat #105037), APC-CD206 (Biolegend, Clone CO68C2, Cat #141708) and BV711-CD45 (BioLegend, Clone 30F11, Cat #103147). Cells from tumors were also stained with PE-CD3+ (BioLegend, Clone 17A2, Cat #100206) to identify the overall T-cell population. To characterize the cells in the subpopulations, cells were fixed and permeabilized with the Intracellular Fixation and Permeabilization Buffer Set (eBioscience Cat #88-8824-00) and stained with FITC-iNOS (Thermo, Clone CXNFT, Cat #53592082) or FITC-Arginase-1 (Thermo, Clone AlexF5, Cat #53-3697-82). These cells were also stained with Fixable viability Dye (FVD)-eflour 780 (Thermo, Cat #65086514) to exclude dead cells.
# To analyze the two subpopulations of BM-MDSCs, the cells were stained with Ly6C-BV421 and Ly6G-APC and sorted into MO-MDSC or PMN-MDSC using the BD FACSAria III Cell Sorter instrument (BD Biosciences). Directly after sorting, the two separate subpopulations were co-cultured with CD8+ T-cells or lysed and further analyzed via western blot.
# B16F10 cells, and sorted MO-MDSC and PMN-MDSC achieved as described, were lysed in RIPA buffer (Sigma, Cat #R0278) supplemented with Protease/Phosphatase Inhibitor Cocktail (Cell signaling, Cat #5872S) on ice for 20 minutes. Total protein concentrations were measured using the detergent-compatible protein assay (Bio-Rad, Cat #5000113 and 5000114) and equal amounts were loaded onto a 4%-20% gradient gel (Invitrogen, Cat #XPO4202) and semidry transferred into a nitrocellulose membrane (Bio-Rad, Cat #1704159). The membrane was incubated with the primary antibodies CSF-1 (Santa Cruz; Clone D-4; #sc-365779), iNOS (Abcam; Clone #ab15323) or GAPDH (Cell Signaling Technology, Cat #14C10). Secondary antibodies used in this study were HRP-conjugated and the membranes were developed with the ECL detection kit (Millipore, Cat #WBLUR).
# B16F10 tumors [2] = test: Myeloid cell and CD3+ T-cell frequencies in excised B16F10 tumors (spectral flow cytometry); format: in vivo, mice; details: CBG 2.5 mg/kg or 3704 3.75 mg/kg i.p., tumors day 14
# Protocol: as §1
# To prepare single-cell suspensions from the tumors, on day 14 the tumors were excised from the mice and placed in Hanks' Balanced Salt solution (HBSS, Sigma; Cat #H6648) containing 20 mg/ml DNase I (Sigma, Cat #D5025), 1 mg/ml collagenase D from Clostridium histolyticum (Sigma-Aldrich, Cat #C5138) and 0.1 mg/ml hyaluronidase (Sigma-Aldrich, Cat #6254). Tumors were mechanically digested using a scalpel and the gentleMACS™M Dissociator (Miltenyi Biotec). The resulting solution was filtered through a 100 μm filter (Alex Red Ltd. Cat #SO SCS1002) and centrifuged for 10 minutes at 400×g. The supernatant was further used for cytokine and chemokine concentration measurements. For the characterization of myeloid cell frequencies in tumors, the cell pellet was further processed as follows: red blood cells were lysed using the red blood lysis buffer (Biological industries, Cat #01-888-1B), which was neutralized by washing with PBS+2% FBS and centrifuging 10 minutes at 400×g. After centrifugation, cells were resuspended in 40% percoll gradient solution (prepared from 100% percoll, Cytiva, #17089101) and then 80% percoll was added on top of the 40% solution without mixing. The cell suspension was centrifuged at room temperature for 30 minutes without acceleration and break at 500×g. Cells were isolated from the interphase between the 40% and 80% percoll solutions and washed with PBS +2% FBS. Finally, cells were stained with extracellular markers for CD3+ T-cells and myeloid cells, and subpopulation frequency was measured by spectral flow cytometry using Cytek® Aurora (Cytek Biosciences). […]
# [3] = CM of treated B16F10 vs CM of DMSO-treated B16F10, 24 hours, flow cytometry
compound,measurement,setting,value
"CCCCCc1cc(O)c(C/C=C(\C)CCC=C(C)C)c(O)c1 [CBG, cannabigerol]",Tumor weight on day 14 compared to vehicle,B16F10 tumors [1]; nine injections,weighed significantly less
same,Tumor volume compared to the vehicle-treated group,"B16F10 tumors [1]; nine injections from day 3, measured daily day 10 to 14",significantly lower in the CBG-treated group already at day 12
same,iNOS expression by western blot in sorted subsets,"BM-MDSCs; CM from treated B16F10 vs CM of DMSO-treated B16F10, sorted MO-MDSC and PMN-MDSC",reduction of iNOS expression specifically in MO-MDSCs
same,iNOS expression by MO-MDSC,BM-MDSCs; [3],significantly decreased iNOS expression
same,iNOS expression by PMN-MDSC,BM-MDSCs; [3],did not detect a significant decrease in iNOS expression
same,Arg-1 expression in MO-MDSCs and PMN-MDSCs,"BM-MDSCs; CM of treated B16F10 vs CM of DMSO-treated B16F10, 24 hours, flow cytometry, neither subpopulation",did not detect a significant difference in Arg-1 expression
same,iNOS expression in directly treated BM-MDSCs (each subpopulation),"BM-MDSCs; medium from untreated B16F10 together with 2 g/ml CBG or 6 μg/ml 3704 for 24 hours, vs DMSO",did not detect any significant differences
same,CD3 T-cells frequencies in tumors relative to vehicle control,B16F10 tumors [2],trend of increase in T-cells frequencies
same,frequencies of MO-MDSC and PMN-MDSC subpopulations in tumors,B16F10 tumors [2],did not affect
same,frequency of M2 macrophages in tumors relative to vehicle control,B16F10 tumors [2],trend of a decreased frequency in M2 macrophages
same,ratio between M1 and M2 macrophages (M2/M1) relative to vehicle control,B16F10 tumors [2]; calculated for each mouse,trend of decreased ratio
